# Assay results taken from patent US20240317727A1 (Duke University, priority 2018, published 2024).
# Assays:
# Format in all cases: cell-based
# HOP-92 = assay: NCI60 cell growth and viability: HOP-92; conditions: HOP-92, Non-Small Cell Lung Cancer, two days
# OVCAR-8 = assay: NCI60 cell growth and viability: OVCAR-8; conditions: OVCAR-8, Ovarian Cancer, two days
# SF-539 = assay: NCI60 cell growth and viability: SF-539; conditions: SF-539, CNS Cancer, two days
# SK-MEL-28 = assay: NCI60 cell growth and viability: SK-MEL-28; conditions: SK-MEL-28, Melanoma, two days
# RXF 393 = assay: NCI60 cell growth and viability: RXF 393; conditions: RXF 393, Renal Cancer, two days
# OVCAR-4 = assay: NCI60 cell growth and viability: OVCAR-4; conditions: OVCAR-4, Ovarian Cancer, two days
# [1] = Homo sapiens, 48 h, read-out: log10 [GI50 (M)] (converted)
# [2] = Homo sapiens, 48 h, read-out: log10 [LC50 (M)] (converted)
smiles,measurement,setting,value
"O=C(Nc1ccc(F)cc1)Nc1ccc(Cl)c([N+](=O)[O-])c1 [Compound 0017, 1-(4-chloro-3-nitrophenyl)-3-(4-fluorophenyl)urea]",log10 [TGI (M)],HOP-92,−5.21 log10 M
same,GI50,HOP-92; [1],2.04e-06 M
same,CC50,HOP-92; [2],2.69e-05 M
same,GI50,OVCAR-8; [1],2.95e-06 M
same,CC50,OVCAR-8; [2],≥ 0.0001 M
same,log10 [TGI (M)],OVCAR-8,−4.82 log10 M
same,GI50,SF-539; [1],3.89e-06 M
same,CC50,SF-539; [2],4.07e-05 M
same,log10 [TGI (M)],SF-539,−4.84 log10 M
same,GI50,SK-MEL-28; [1],3.8e-06 M
same,CC50,SK-MEL-28; [2],3.8e-05 M
same,log10 [TGI (M)],SK-MEL-28,−4.85 log10 M
same,GI50,RXF 393; [1],1.74e-06 M
same,CC50,RXF 393; [2],2.82e-05 M
same,log10 [TGI (M)],RXF 393,−5.17 log10 M
same,GI50,OVCAR-4; [1],2.75e-06 M
same,CC50,OVCAR-4; [2],8.71e-05 M
same,log10 [TGI (M)],OVCAR-4,−4.85 log10 M
